# Experiments:
# [1] = Body weight after ACT (S1A); format: in vivo, mouse; conditions: EpA-Th9 therapy vs control; result in words
# Description: C57BL/6 mice were subcutaneously injected with 5 × 10^5 B16-OVA melanoma cells. Five days after tumor implantation, mice received an intravenous infusion of 2 × 10^6 in vitro–differentiated Th9 cells (cultured for 5 days), which were derived from OT-II CD45.1 donor mice, accompanied by 4 × 10^5 OVA peptide–pulsed DCs via the tail vein. To enhance T cell engraftment and facilitate lymphodepletion, a single intraperitoneal injection of cyclophosphamide (200 mg/kg, Sigma, catalog C0768) was administered 1 day prior to T cell transfer. Mice were euthanized at designated time points for the collection and analysis of spleens, tumor-draining lymph nodes, and tumor tissues.
# Days after ACT Days after ACT
# Figure S1. EpA enhances immune responses.
# (A) Body weight of mice after ACT in PBS, control, and EpA-treated groups. (B) Serum IL-6 levels after ACT, measured by ELISA on days 5, 10, 15, and 20. (C–E) Representative flow-cytometric plots showing transferred CD45.1⁺ OT-II Th9 cells in spleens (C), tumor-draining lymph nodes (LNs) (D), and tumors (E); frequencies Figure S1 and absolute numbers of CD45.1⁺ OT-II Th9 cells in LNs are quantified in (D). (F–
# I) Representative flow-cytometric plots of endogenous CD4⁺ and CD8⁺ T cells in spleens (F), LNs (G), and tumors (H); frequencies and absolute numbers of endogenous CD4⁺ (G) and CD8⁺ (I) T cells in LNs are quantified. […]
# [2] = system: gene sets in Th9 cells; experiment: GSEA / pathway enrichment of RNA-seq data; format: cell-based, mouse; conditions: result in words
# Description: GSEA was performed using the clusterProfiler R package (v4.12.6), with curated gene sets obtained from the Gene Ontology and Kyoto Encyclopedia of Genes and Genomes databases. Enrichment plots were generated using the GseaVis R package (v0.1.0) to facilitate data visualization.
# [3] = system: human Th9 CAR T cells; experiment: CAR lentivirus infection efficiency, GFP (S9C); format: cell-based; conditions: representative flow plot, Figure S9C
# Source text: Ct EpA Fat Fat Ct EpA Fat Fat
# (A) Flow-cytometric analysis of intracellular IL-9 expression in human Th9 cells […]
# (B) Flow-cytometric assessment of mitochondrial mass using Mito Tracker in human Th9 cells treated as in (A) (n = 3).
# (C) Flow-cytometric analysis of infection efficiency in Th9 cells transduced with a CD19-directed CAR lentivirus. (D and E) Flow-cytometric analysis of IL-9 expression in human Th9 CAR-T cells on days 5 and 6 of in vitro differentiation, showing representative plots (D) and quantification (E) (n = 3). (F) Measurement of intracellular ATP levels normalized to cell number in human Th9 CAR-T c e l l s (n =5).
# (G) Flow-cytometric analysis of mitochondrial mass using Mito Tracker in human Th9 CAR-T c e l l s (n = 3). (H and I) Flow-cytometric analysis of granzyme B⁺ CAR-Th9 cells isolated from spleens after adoptive transfer, showing representative plots (H) and quantification (I) (n = 5 mice per group). Statistical analysis was performed using one-way ANOVA with Tukey’s post hoc test (A and B), or two-tailed unpaired Student’s t-test (E–G, and I). Repeated data are presented as mean ± SEM. *p < 0.05, […]
substance,measurement,setting,value
anteiso-C15 Leu7 surfactin [EpA],body weight,[1],No significant differences
same,glycolytic and carbon metabolism pathways,[2],significant enrichment
same,lipid-related pathways,[2],markedly downregulated
same,oxidative phosphorylation-related gene sets,[2],upregulation
same,GFP gate number (infection efficiency),[3],47.8

# From PMC12867150, “A fungi-derived cyclic peptide enhances Th9-mediated antitumor immunity by targeting ZAP70 and SREBP1” (The Journal of Clinical Investigation, 2025)
